# PubChem BioAssay AID651794 (The Scripps Research Institute Molecular Screening Center, 2012)
# Calls of active or inactive are those of the source. No rule for the calls is given here.
# System: cell-based VP16 transactivation counterscreen, luciferase luminescence
# Experiment: VP16 transactivation reporter inhibitors, late-stage follow-up, counter-screen for SRC1 inhibitor project, cell-based, luminescence, dose response (AID 651794)
row,Compound,IC50
1,COc1ccc(Nc2ncnc3ccc(Br)cc23)c(OC)c1,36.2 µM (inactive)
2,COc1cc([C@@H]2c3cc4c(cc3C(OC3OC5COC(C)OC5C(O)C3O)C3COC(=O)[C@@H]32)OCO4)cc(OC)c1O (stereo partly drawn),> 35.9 µM (inactive)
3,COc1ccc(NC(=O)CN(C)C(=O)C2(c3ccccc3)CCCC2)cc1,> 35.9 µM (inactive)
